Active and inactive are the calls of the source. No cut-off for these calls is given here.
What was measured:
[1] = test system: Trypanosoma brucei rhodesiense; experiment: Antitrypanosomal activity against Trypanosoma brucei rhodesiense assessed as growth inhibition; assay type: functional, organism-based
[2] = test system: Trypanosoma brucei rhodesiense; experiment: In vivo […] activity against Trypanosoma brucei rhodesiense infected mouse model assessed as clear parasitaemia at 50 mg/kg, ip qd after 4 days; assay type: functional, organism-based; parameters: dose 50 mg/kg
Trypanosoma cruzi = experiment: Antitrypanosomal activity against Trypanosoma cruzi assessed as growth inhibition; assay type: functional, organism-based
Giardia intestinalis = experiment: Antiprotozoal activity against Giardia lamblia assessed as growth inhibition; assay type: functional, organism-based; conditions: Giardia duodenalis
[3] = test system: Trypanosoma brucei rhodesiense; experiment: Antitrypanosomal activity against Trypanosoma brucei rhodesiense infected mouse model assessed as clear parasitaemia at 50 mg/kg, ip qd for 4 days measured on day 9; assay type: functional, organism-based; parameters: dose 50 mg/kg
Plasmodium falciparum = experiment: Antiplasmodial activity against Plasmodium falciparum assessed as growth inhibition; assay type: functional, organism-based
L6 = experiment: Cytotoxicity against rat L6 cells; assay type: cell-based
[4] = test system: Trypanosoma brucei rhodesiense; experiment: Antitrypanosomal activity against Trypanosoma brucei rhodesiense infected mouse model assessed as clear parasitaemia at 50 mg/kg, ip qd for 4 days measured on day 11; assay type: functional, organism-based; parameters: dose 50 mg/kg
Mus musculus = experiment: Toxicity in mouse infected with Trypanosoma brucei rhodesiense assessed as death at 50 mg/kg, ip qd after 2 administeration; assay type: organism-based; parameters: dose 50 mg/kg, route intraperitoneal; conditions: in vivo

Row | IC50 [1] | IC50 (Trypanosoma cruzi) | SMILES | Activity [2] | IC50 (Giardia intestinalis) | Activity [3] | IC50 (Plasmodium falciparum) | IC50 (L6) | Activity [4] | Activity (Mus musculus)
1 | 18 nM | 6590 nM | CCNC(=O)c1noc(-c2cc(C(C)C)c(O)cc2O)c1NC(=O)c1ccc(CN2CCOCC2)cc1 | Active | 9.74 µM | Active | 25 nM | 201 nM | – | –
2 | 22 nM | 16700 nM | CCNC(=O)c1noc(-c2cc(C(C)C)c(O)cc2O)c1NC(=O)CCN1CCOCC1 | Active | 0.983 µM | – | 37 nM | 146 nM | Active | –
3 | – | 409 nM | O=C(Cn1ccnc1[N+](=O)[O-])NCc1ccccc1 [BENZNIDAZOLE] | – | – | – | – | – | – | –
4 | 971 nM | 996 nM | CCNC(=O)c1noc2c1CN(C(=O)c1cc(C(C)C)c(O)cc1O)CC2 | – | 4.36 µM | – | 4520 nM | 110 nM | – | –
5 | 52400 nM | 616 nM | CCOC(=O)c1noc2c1CN(C(=O)c1cc(C(C)C)c(O)cc1O)CC2 | – | 2.46 µM | – | 7260 nM | 563 nM | – | –
6 | 1 nM | 27 nM | CCNC(=O)c1nnn(-c2cc(C(C)C)c(O)cc2O)c1-c1ccc(CN2CCOCC2)cc1 | – | 0.067 µM | – | 1 nM | 2 nM | – | –
7 | – | – | Cc1ncc([N+](=O)[O-])n1CCO [METRONIDAZOLE] | – | 0.58 µM | – | – | – | – | –
8 | 10 nM | 8060 nM | CCNC(=O)c1noc(-c2cc(C(C)C)c(O)cc2O)c1NC(=O)c1cc(CN2CCOCC2)on1 | – | 12.8 µM | – | 36 nM | 279 nM | – | –
9 | 3 nM | 4960 nM | CCNC(=O)c1nnn(-c2cc(C(C)C)c(O)cc2O)c1-c1ccc(Cn2ccnc2)cc1 | – | 0.4 µM | – | 1 nM | 11 nM | – | –
10 | 126 nM | 4200 nM | CCNC(=O)c1noc(-c2cc(C(C)C)c(O)cc2O)c1NC(=O)[C@H]1CC[C@H](CNS(=O)(=O)c2ccc(F)cc2)CC1 | – | 7.57 µM | – | 117 nM | 888 nM | – | –
11 | 763 nM | 1460 nM | CCNC(=O)c1noc(-c2cc(C(C)C)c(O)cc2O)c1NC(=O)[C@@H]1CC[C@H](C(=O)OC)C1 | – | 6.43 µM | – | 26 nM | 40 nM | – | –
12 | 4 nM | 2700 nM | CCNC(=O)c1noc(-c2cc(C(C)C)c(O)cc2O)c1NC(=O)C1CCC(OC)CC1 (centres undefined) | – | 8.11 µM | – | 12 nM | 15 nM | – | –
13 | 14 nM | 435 nM | CCNC(=O)c1noc(-c2cc(C(C)C)c(O)cc2O)c1NC(=O)c1ccc(OC)cc1 | – | 3.19 µM | – | 29 nM | 7 nM | – | –
14 | 1 nM | 728 nM | CCNC(=O)c1nnn(-c2cc(C(C)C)c(O)cc2O)c1-c1ccc(CC2CCCC2)cc1 | – | 0.356 µM | – | 2 nM | 8 nM | – | –
15 | 18 nM | 554 nM | CCNC(=O)c1noc(-c2cc(C(C)C)c(O)cc2O)c1NC(=O)c1cc(CC)on1 | – | 4.06 µM | – | 35 nM | 20 nM | – | –
16 | 12 nM | 1380 nM | CCNC(=O)c1noc(-c2cc(C(C)C)c(O)cc2O)c1NC(=O)c1ccco1 | – | 2.36 µM | – | 17 nM | 25 nM | – | –
17 | – | – | COc1cc([C@@H]2c3cc4c(cc3[C@H](O)[C@H]3COC(=O)[C@H]23)OCO4)cc(OC)c1OC [PODOFILOX] | – | – | – | – | 5 nM | – | –

Row | SMILES | IC50 [1] | IC50 (Trypanosoma cruzi) | Activity [2] | IC50 (Giardia intestinalis) | Activity [3] | IC50 (Plasmodium falciparum) | IC50 (L6) | Activity [4] | Activity (Mus musculus)
18 | CCNC(=O)c1nnn(-c2cc(C(C)C)c(O)cc2O)c1-c1ccc(CNCN2CCOCC2)cc1 | 4 nM | 17500 nM | – | 4.46 µM | – | 4 nM | 264 nM | – | Toxic
19 | Nc1nc(N)nc(Nc2ccc([As]3SCC(CO)S3)cc2)n1 (centres undefined) [MELARSOPROL] | 3 nM | – | – | – | – | – | – | – | –

From ChEMBL document CHEMBL3352293, “Exploring in vitro and in vivo Hsp90 inhibitors activity against human protozoan parasites” (Bioorg Med Chem Lett, 2015)
